Experimental findings from patent US9029359B2, “Heteroaryl Btk inhibitors” (Biogen Idec MA, Inc., priority 2009, dated 2015) are described below.

The structures appear in SMILES notation.

T1 sequence (Q06187 whole entry): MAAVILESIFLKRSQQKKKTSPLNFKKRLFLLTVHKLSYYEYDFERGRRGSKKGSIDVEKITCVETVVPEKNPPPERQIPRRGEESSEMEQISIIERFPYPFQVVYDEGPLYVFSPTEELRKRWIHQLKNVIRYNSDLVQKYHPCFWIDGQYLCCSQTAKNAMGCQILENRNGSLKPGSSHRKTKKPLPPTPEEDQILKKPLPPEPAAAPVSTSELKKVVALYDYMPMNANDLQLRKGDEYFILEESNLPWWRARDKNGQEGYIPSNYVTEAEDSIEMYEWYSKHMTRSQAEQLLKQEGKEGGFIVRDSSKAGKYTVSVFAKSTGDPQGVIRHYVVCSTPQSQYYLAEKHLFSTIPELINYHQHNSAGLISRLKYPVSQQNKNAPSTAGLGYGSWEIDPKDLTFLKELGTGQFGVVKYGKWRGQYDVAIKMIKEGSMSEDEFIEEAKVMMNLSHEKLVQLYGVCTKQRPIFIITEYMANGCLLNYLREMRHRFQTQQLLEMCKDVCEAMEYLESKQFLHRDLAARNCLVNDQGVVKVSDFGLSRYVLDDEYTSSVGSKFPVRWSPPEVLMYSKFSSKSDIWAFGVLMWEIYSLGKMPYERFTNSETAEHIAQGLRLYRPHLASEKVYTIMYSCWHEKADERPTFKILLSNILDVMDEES

The assay addresses T1, BTK (Homo sapiens, UniProt Q06187).
T1 construct: purchased Upstate 14-552
As to the kind of experiment: In vitro BTK kinase assay: BTK-POLYGAT-LS ASSAY. The class given is biochemical. Conditions: ATP 10 uM. In outline:
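BTK phosphorylation of polyGAT (100 nM final) with ATP at 10 μM final, 10 mM Tris-HCl pH 7.5 kinase buffer, quenched by EDTA after 30 min. Potency given as IC50.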
By IC50 is commonly meant the concentration at which inhibition is half-maximal. Low values mean inhibition by little substance, high ones a need for much substance. As for `Cc1ccccc1NCC(=O)N[C@@H]1CCCN(c2ncnc3[nH]ccc23)C1` [Example 268], the IC50 lay within 100 to 999 nM.

In the case of `CC(C)c1ccccc1N[C@H](C)C(=O)N[C@@H]1CCCN(c2ncnc3[nH]ccc23)C1` [Example 269], the IC50 fell in the range of 100 to 999 nM.

Regarding `COc1ccc(C)cc1NCC(=O)N[C@@H]1CCCN(c2ncnc3[nH]ccc23)C1` [Example 270], the IC50 is below 100 nM.

In turn, `Cc1c(Cl)cccc1NCC(=O)N[C@@H]1CCCN(c2ncnc3[nH]ccc23)C1` [Example 272] registered an IC50 below 100 nM.

`Cc1ccc(F)cc1NCC(=O)N[C@@H]1CCCN(c2ncnc3[nH]ccc23)C1` [Example 273] gave a 50% inhibitory concentration (IC50) below 100 nM.

`O=C(CNc1cccc2ccccc12)N[C@@H]1CCCN(c2ncnc3[nH]ccc23)C1` [Example 274] yielded a half-maximal inhibitory concentration (IC50) of 100 to 999 nM.

On to `O=C(CNc1ccc(F)c(I)c1)N[C@@H]1CCCN(c2ncnc3[nH]ccc23)C1` [Example 275], for which the IC50 fell in the range of 100 to 999 nM.

For `O=C(CNc1ccccc1OCC(F)(F)F)N[C@@H]1CCCN(c2ncnc3[nH]ccc23)C1` [Example 277], the concentration for half-maximal inhibition (IC50) is 100 to 999 nM.

In the case of `O=C(CNc1cc(C(F)(F)F)ccc1N1CCCC1)N[C@@H]1CCCN(c2ncnc3[nH]ccc23)C1` [Example 278], the half-maximal inhibitory concentration (IC50) was 100 to 999 nM.

With `CCC[C@@H](Nc1ccccc1C(C)C)C(=O)N[C@@H]1CCCN(c2ncnc3[nH]ccc23)C1` [Example 279], the IC50 is 100 to 999 nM.

The molecule `O=C(CNc1cccc(OC2CCCC2)c1)N[C@@H]1CCCN(c2ncnc3[nH]ccc23)C1` [Example 281] had an IC50 of 100 to 999 nM.

In turn, `Cc1cc(C)cc(NCC(=O)N[C@@H]2CCCN(c3ncnc4[nH]ccc34)C2)c1` [Example 282] returned an IC50 of 100 to 999 nM.

With `CC(C)CCOc1cccc(NCC(=O)N[C@@H]2CCCN(c3ncnc4[nH]ccc34)C2)c1` [Example 283], the half-maximal inhibitory concentration (IC50) is below 100 nM.

In turn, `CC(C)c1ccccc1N[C@@H](C(=O)N[C@@H]1CCCN(c2ncnc3[nH]ccc23)C1)C1CC1` [Example 284] returned a half-inhibitory concentration (IC50) of 100 to 999 nM.

For the molecule `O=C(CNc1cc(F)c(F)c(F)c1)N[C@@H]1CCCN(c2ncnc3[nH]ccc23)C1` [Example 285], the IC50 fell in the range of 100 to 999 nM.

The molecule `O=C(CNc1ccc(Cl)c(Cl)c1)N[C@@H]1CCCN(c2ncnc3[nH]ccc23)C1` [Example 286] gave an IC50 of 100 to 999 nM.

In the case of `Cc1ccc(NCC(=O)N[C@@H]2CCCN(c3ncnc4[nH]ccc34)C2)cc1Cl` [Example 287], the IC50 was 100 to 999 nM.

The molecule `CN(C)S(=O)(=O)c1ccccc1NCC(=O)N[C@@H]1CCCN(c2ncnc3[nH]ccc23)C1` [Example 288] yielded an IC50 of 100 to 999 nM.

Consider `Cc1nc(-c2cccc(NCC(=O)N[C@@H]3CCCN(c4ncnc5[nH]ccc45)C3)c2)cs1` [Example 289], for which the half-inhibitory concentration (IC50) lay in the range of 100 to 999 nM.

As to `O=C(CNc1ccccc1N1CCCCC1)N[C@@H]1CCCN(c2ncnc3[nH]ccc23)C1` [Example 290], the IC50 fell in the range of 100 to 999 nM.

Molecule `Cc1cccc(NCC(=O)N[C@@H]2CCCN(c3ncnc4[nH]ccc34)C2)c1C` [Example 292] showed a half-inhibitory concentration (IC50) of 100 to 999 nM.

`Cc1ccc(NCC(=O)N[C@@H]2CCCN(c3ncnc4[nH]ccc34)C2)cc1F` [Example 293]: the concentration for half-maximal inhibition (IC50) was 100 to 999 nM.

Molecule `CC[C@@H](Nc1ccccc1C(C)C)C(=O)N[C@@H]1CCCN(c2ncnc3[nH]ncc23)C1` [Example 294] registered an IC50 of 100 to 999 nM.

`Cc1ccc(Cl)cc1NCC(=O)N[C@@H]1CCCN(c2ncnc3[nH]ccc23)C1` [Example 295] had a 50% inhibitory concentration (IC50) of 100 to 999 nM.

In turn, `CC(C)(O)[C@@H](Nc1cc(F)cc(Cl)c1)C(=O)N[C@@H]1CCCN(c2ncnc3[nH]ccc23)C1` [Example 296] registered a half-maximal inhibitory concentration (IC50) of 100 to 999 nM.

On to `N#Cc1cc(Cl)cc(NCC(=O)N[C@@H]2CCCN(c3ncnc4[nH]ccc34)C2)c1` [Example 297], for which the half-inhibitory concentration (IC50) lay in the range of 100 to 999 nM.

As for `O=C(CNc1cccc(Cl)c1Cl)N[C@@H]1CCCN(c2ncnc3[nH]ccc23)C1` [Example 299], the IC50 fell in the range of 100 to 999 nM.

The molecule `CC(C)c1ccccc1N[C@@H](C(=O)N[C@@H]1CCCN(c2ncnc3[nH]ccc23)C1)C(C)(C)C` [Example 300] had a half-maximal inhibitory concentration (IC50) of 100 to 999 nM.

On to `O=C(CNc1cccc(N2CCCC2)c1)N[C@@H]1CCCN(c2ncnc3[nH]ccc23)C1` [Example 301], for which the concentration for half-maximal inhibition (IC50) lay within 100 to 999 nM.

As to `Cc1ccc(C)n1-c1cccc(NCC(=O)N[C@@H]2CCCN(c3ncnc4[nH]ccc34)C2)c1` [Example 302], the 50% inhibitory concentration (IC50) lay in the range of 100 to 999 nM.

As for `O=C(CNc1cccc(-n2cccc2)c1)N[C@@H]1CCCN(c2ncnc3[nH]ccc23)C1` [Example 303], the IC50 was in the range of 100 to 999 nM.

For `O=C(CNc1cccc(-c2cn3ccccc3n2)c1)N[C@@H]1CCCN(c2ncnc3[nH]ccc23)C1` [Example 304], the IC50 is 100 to 999 nM.

`O=C(CNc1cccc(-c2cccs2)c1)N[C@@H]1CCCN(c2ncnc3[nH]ccc23)C1` [Example 305] yielded a half-inhibitory concentration (IC50) of 100 to 999 nM.

Consider `C[C@H](O)[C@@H](Nc1cc(F)cc(Cl)c1)C(=O)N[C@@H]1CCCN(c2ncnc3[nH]ccc23)C1` [Example 306], for which the IC50 was 100 to 999 nM.

As for `C[C@@H](O)[C@@H](Nc1cc(F)cc(Cl)c1)C(=O)N[C@@H]1CCCN(c2ncnc3[nH]ccc23)C1` [Example 307], the IC50 was in the range of 100 to 999 nM.

The molecule `O=C(CNc1cc(C(F)(F)F)cc(C(F)(F)F)c1)N[C@@H]1CCCN(c2ncnc3[nH]ccc23)C1` [Example 308] registered an IC50 of 100 to 999 nM.

In the case of `COc1ccccc1NCC(=O)N[C@@H]1CCCN(c2ncnc3[nH]ccc23)C1` [Example 309], the concentration for half-maximal inhibition (IC50) was 100 to 999 nM.

The molecule `CCOc1ccccc1NCC(=O)N[C@@H]1CCCN(c2ncnc3[nH]ccc23)C1` [Example 310] showed an IC50 of 100 to 999 nM.

For the molecule `COc1ccc(Cl)cc1NCC(=O)N[C@@H]1CCCN(c2ncnc3[nH]ccc23)C1` [Example 312], the IC50 is 100 to 999 nM.

The molecule `Cc1ccc(Cl)c(NCC(=O)N[C@@H]2CCCN(c3ncnc4[nH]ccc34)C2)c1` [Example 313] registered a concentration for half-maximal inhibition (IC50) of 100 to 999 nM.

As for `Nc1cc(N2CCC[C@@H](NC(=O)[C@H](Nc3cc(F)cc(Cl)c3)C3CC3)C2)ncn1` [Example 314], the half-inhibitory concentration (IC50) fell in the range of 100 to 999 nM.

For `CC(C)Oc1cccc(NCC(=O)N[C@@H]2CCCN(c3ncnc4[nH]ccc34)C2)c1` [Example 315], the IC50 was in the range of 100 to 999 nM.

The molecule `CCOc1cccc(NCC(=O)N[C@@H]2CCCN(c3ncnc4[nH]ccc34)C2)c1` [Example 316] had a concentration for half-maximal inhibition (IC50) of 100 to 999 nM.

As for `O=C(CNc1ccc(Cl)cc1Cl)N[C@@H]1CCCN(c2ncnc3[nH]ccc23)C1` [Example 317], the IC50 is 100 to 999 nM.

Consider `O=C(CNc1ccccc1F)N[C@@H]1CCCN(c2ncnc3[nH]ccc23)C1` [Example 318], for which the half-maximal inhibitory concentration (IC50) lay in the range of 100 to 999 nM.

In the case of `O=C(CNc1cc(Cl)ccc1Cl)N[C@@H]1CCCN(c2ncnc3[nH]ccc23)C1` [Example 319], the half-maximal inhibitory concentration (IC50) fell in the range of 100 to 999 nM.

For the molecule `Nc1ncnc(N2CCC[C@@H](NC(=O)CNc3cc(Cl)cc(Cl)c3)C2)c1CCCO` [Example 320], the half-inhibitory concentration (IC50) was in the range of 100 to 999 nM.

The molecule `O=C(CNc1c(F)cccc1F)N[C@@H]1CCCN(c2ncnc3[nH]ccc23)C1` [Example 321] displayed a half-maximal inhibitory concentration (IC50) of 100 to 999 nM.

In turn, `COc1cccc(NCC(=O)N[C@@H]2CCCN(c3ncnc4[nH]ccc34)C2)c1` [Example 322] displayed an IC50 of 100 to 999 nM.

`O=C(CNc1ccccc1)N(CCN1CCOCC1)C1CCCN(c2ncnc3[nH]ccc23)C1` (centres unmarked) [Example 323] yielded an IC50 of 100 to 999 nM.

Molecule `O=C(CNc1cccc2c1CCC2)N[C@@H]1CCCN(c2ncnc3[nH]ccc23)C1` [Example 324] registered an IC50 of 100 to 999 nM.

As to `NC(=O)c1c(N)ncnc1N1CCC[C@@H](NC(=O)CNc2cc(Cl)cc(Cl)c2)C1` [Example 326], the half-inhibitory concentration (IC50) is 100 to 999 nM.

On to `COc1cc(NCC(=O)N[C@@H]2CCCN(c3ncnc4[nH]ccc34)C2)cc(C(F)(F)F)c1` [Example 327], for which the half-maximal inhibitory concentration (IC50) lay within 100 to 999 nM.

Molecule `O=C(CNc1cccc2nccn12)NC1CCCN(c2ncnc3[nH]ccc23)C1` (centres unmarked) [Example 328] displayed a concentration for half-maximal inhibition (IC50) above 10000 nM.

Take `O=C(CNc1cccc2ccncc12)NC1CCCN(c2ncnc3[nH]ccc23)C1` (centres unmarked) [Example 329]: the IC50 is above 10000 nM.

In turn, `O=C(CNC(=O)N1CCCCC1)NC1CCCN(c2ncnc3[nH]ccc23)C1` (centres unmarked) [Example 330] displayed an IC50 above 10000 nM.

In turn, `CC(C)n1ccc(NCC(=O)NC2CCCN(c3ncnc4[nH]ccc34)C2)n1` (centres unmarked) [Example 331] displayed an IC50 above 10000 nM.

With `O=C(CNc1cccc2ncccc12)NC1CCCN(c2ncnc3[nH]ccc23)C1` (centres unmarked) [Example 332], the IC50 was above 10000 nM.

The molecule `O=C(CNc1cccc2cnccc12)NC1CCCN(c2ncnc3[nH]ccc23)C1` (centres unmarked) [Example 333] gave a 50% inhibitory concentration (IC50) of 1000 to 10000 nM.

In turn, `O=C(CNc1cccc(C(F)(F)F)n1)NC1CCCN(c2ncnc3[nH]ccc23)C1` (centres unmarked) [Example 334] had a concentration for half-maximal inhibition (IC50) of 1000 to 10000 nM.

For `O=C(CNc1ccc2c(c1)OCO2)NC1CCCN(c2nccc3[nH]ccc23)C1` (centres unmarked) [Example 335], the IC50 is above 10000 nM.

For the molecule `O=C(CNc1cccc2c1OCCO2)NC1CCCN(c2ncnc3[nH]ccc23)C1` (centres unmarked) [Example 336], the IC50 was above 10000 nM.

`O=C(CNc1cccc(N2CCNC2=O)c1)NC1CCCN(c2ncnc3[nH]ccc23)C1` (centres unmarked) [Example 337] came in with an IC50 above 10000 nM.

For the molecule `O=C(CNc1cccc(N2CCCC2=O)c1)NC1CCCN(c2ncnc3[nH]ccc23)C1` (centres unmarked) [Example 338], the half-inhibitory concentration (IC50) is 1000 to 10000 nM.

`CNC(=O)c1cccc(NCC(=O)NC2CCCN(c3ncnc4[nH]ccc34)C2)c1` (centres unmarked) [Example 339] had a half-maximal inhibitory concentration (IC50) above 10000 nM.

As to `COc1cccc(NCC(=O)NC2CCCN(c3nccc4[nH]ccc34)C2)c1OC` (centres unmarked) [Example 340], the half-inhibitory concentration (IC50) is above 10000 nM.

With `CC(O)c1cccc(NCC(=O)NC2CCCN(c3ncnc4[nH]ccc34)C2)c1` (centres unmarked) [Example 341], the 50% inhibitory concentration (IC50) is above 10000 nM.

Consider `Cn1cccc(NCC(=O)NC2CCCN(c3ncnc4[nH]ccc34)C2)c1=O` (centres unmarked) [Example 342], for which the IC50 was above 10000 nM.

`CN1CCN(c2cccc(NCC(=O)NC3CCCN(c4ncnc5[nH]ccc45)C3)c2)CC1` (centres unmarked) [Example 343]: the IC50 is above 10000 nM.

The molecule `CNC(=O)c1cnc(NC2CCCN(c3ncnc4[nH]ccc34)C2)s1` (centres unmarked) [Example 344] yielded an IC50 above 10000 nM.

For `CN(C)Cc1cccc(NCC(=O)NC2CCCN(c3ncnc4[nH]ccc34)C2)c1` (centres unmarked) [Example 345], the concentration for half-maximal inhibition (IC50) is above 10000 nM.
